Experimental data from patent US20030125388A1, “5-Aminolevulinic acid formulation dissolved/dispersed in non-aqueous solvents” (priority 2000, published 2003).

Experiments:
[1] = Decomposition check of non-aqueous 5-ALA solutions by capillary electrophoresis; format: physicochemical; conditions: 10% solutions (weight/vol) in 1,2-propylene glycol and glycerol, after complete dissolution
Method: 10% solutions (weight/vol) of […] in 1,2-propylene glycol and glycerol were prepared.

[2] = UV-VIS measurement of 5-ALA solution after dilution with water; format: physicochemical; conditions: 10% water-free solution, water added 1:1, subsequently diluted 1:100 with water
Excerpt: This was detected by measuring the decrease of absorbance at 447 nm (FIG. 2).

by-products in UV spectrum [2]: without the presence of by-products
Structure (SMILES): NCC(=O)CCC(=O)O [5-ALA, 5-aminolevulinic acid]
degradation products (DHPY, PY, porphobilinogen) in capillary electrophoresis [1]: neither DHPY, PY nor porphobilinogen were detected
